Reference: patent US5494901A, “Topical compositions for the eye comprising a β-cyclodextrin derivative and a therapeutic agent” (priority 1993, dated 1996)
Values after ≈ are worked out from the molar mass of the structure shown. Structures can show the parent of a compound that is named as a salt. Where two headings read alike, the source gives them in different places.

Tests used:
[1] = Maximum solubility and guest/host molar ratios in 45% hydroxypropyl-β-cyclodextrin (Example 6); type: physicochemical; details: for solubility: 45% hpbcd
Experimental: 45% (w/v) aqueous solutions of 2-hydroxypropyl-β-cyclodextrin using either source A or B (see Example 3) were prepared, and the maximum solubilities of phenoltetrabromphthalein and of cholesterol were determined per 5.0 ml of solution using standard techniques. Phenoltetrabromphthalein concentration was determined spectrophotometrically at 580 mμ. Cholesterol concentration was determined by both GLC and by liquid scintillation counting using cholesterol of known specific activity. The data are shown below, along with a summary of data from other examples.

[2] = with β-cyclodextrin at either 3% or 1.5%; topical; Grove et al.; cited from earlier work
[3] = test system: anterior chamber of the eye; test: Fluorescence in anterior chamber after topical Na-Fluorescein, slit lamp biomicroscope; type: in vivo, New Zealand white rabbit; details: 2% Na-Fluorescein in 0.9% saline; at one hour; rabbit
Experimental: Solutions of 2% Na-Fluorescein were prepared in 0.9% Saline, 4.5% HPBCD, and 45% HPBCD (the HPBCD is Type B of Example 3). Each solution was applied to the eye of a New Zealand white rabbit and observed for a period of one hour. The anterior chamber of the eye was examined with a standard blue light source on a slit lamp biomicroscope.

intraocular pressure [4] = test: Intraocular pressure after topical acetazolamide preparations, Perkins applanation tonometer (Example 2); type: in vivo, New Zealand white rabbits; details: 1% Na-acetazolamide in 0.9% NaCl, FIG. 1
Experimental: Solutions of 1% acetazolamide in 45% HPBCD and 1% Na-acetazolamide in 0.9% NaCl were applied to paired right and left eyes of 10 New Zealand white rabbits (the HPBCD is Type B of Example 3). Intraocular pressure was measured with a Perkins applanation tonometer at hourly intervals until all pressures returned to baseline. […] As a further control, the acetazolamide/HPBCD preparation was compared with 45% HPBCD alone (control).

[5] = Palmitic acid in centrifuged fractions of 2-hydroxypropyl-β-cyclodextrin solution in D2O, by GLC (Example 7); type: physicochemical; details: Wacker HPBCD in D2O, 100,000× g 3 hours
Experimental: 2.25 g of Wacker 2-hydroxypropyl-β-cyclodextrin (Source C of Example 3) was dissolved in D2 O to give a final volume of 5.0 ml. 100 mg of palmitic acid was added to the solution and the mixture placed in an ultrasonic water bath at 60° C. for several hours, after which it was brought to room temperature and filtered through an 0.22 mμ millipore filter to obtain a clear solution. 3.0 ml of the solution was centrifuged at 100,000× g for 3 hours in a Beckman TL-100 centrifuge. Following centrifugation, aliquots of approximately 1.0 ml were removed from the tube to give upper, middle and lower fractions. A 0.1 ml aliquot from each fraction was pipetted into a tube and 1 mg of cholesterol added as an internal standard. Each tube was then partitioned between ethyl acetate and water to extract all of the palmitic acid and internal standard. The amount of palmitic acid in each aliquot was then determined by GLC using a flame detector.

[6] = Maximum solubility and guest/host molar ratios in 45% hydroxypropyl-β-cyclodextrin (Example 6); type: physicochemical; details: source C (Wacker)
[7] = Maximum solubility of acetazolamide with commercial HPBCD preparations (Example 3); type: physicochemical
Excerpt: The solubility of the active agent can be determined by any of the conventional methods available. For example, solutions of the agent, prepared with and without a β-cyclodextrin derivative, can be filtered (e.g., using a 0.22 or 0.45 μm membrane filter) to eliminate undissolved agent, and subjected to chromatography (e.g., reverse-phase HPLC) to determine the concentration of agent present in the solution.
In order to assess the efficiency of 3 different commercially available preparations of HPBCD, the maximum solubility of acetazolamide (maximum solubility in water: 0.1%) was determined for each. The three sources of HPBCD were (A) Roquette (RE No. 446601), (B) American Maize ("Encapsin"), and (C) Wacker Chemical (BetaW7, HP0.9).

[8] = cited from earlier work
[9] = test system: intraocular pressure of the normal rabbit eye; details: topical, Silvestrini; cited from earlier work
intraocular pressure [10] = test: Intraocular pressure after 1% methazolamide in 45% HPBCD, applanation tonometry (Example 5); type: in vivo, New Zealand white rabbits; details: dissolved in HPBCD
Experimental: Solutions of 1% methazolamide in 45% HPBCD and the HPBCD alone (control) were applied to paired right and left eyes of New Zealand white rabbits. Intraocular pressure was measured by applanation tonometry until pressures returned to baseline.

[11] = source A (Roquette), read-out: maximum solubility
[12] = source B (A. Maize), read-out: maximum solubility

For `C[C@@H](CO)CCC[C@@H](C)[C@H]1CC[C@H]2[C@@H]3CC=C4C[C@@H](O)CC[C@]4(C)[C@H]3CC[C@]12C` [26-hydroxy cholesterol], the guest/host molar ratio [1] was “.16” and the solubility ([1]; maximum solubility) was 20000 µg/mL.

For `CC(C)CCC[C@@H](C)[C@H]1CC[C@H]2[C@@H]3CC=C4C[C@@H](O)CC[C@]4(C)[C@H]3CC[C@]12C` [Cholesterol, cholesterol], the guest/host molar ratio ([1]; 45% HPBCD, source A (Roquette)) was “.0015”, the guest/host molar ratio ([1]; 45% HPBCD, source B (A. Maize)) was “.038” and the solubility [1, 11] was 80 µg/mL. For the same compound, the solubility [1, 12] was 4300 µg/mL.

In the case of `CCN[C@H]1C[C@H](C)S(=O)(=O)c2sc(S(N)(=O)=O)cc21` [L-671152], the “ocular bioavailability compared to inhibitor administered alone” value [2] is given as “about 50%”.

In the case of `O=C1OC2(c3ccc(O)cc3Oc3cc(O)ccc32)c2ccccc21` [Na-Fluorescein], the “fluorescence seen in the eye” value [3] is reported as “considerable fluorescence”.

With `CC(=O)Nc1nnc(S(N)(=O)=O)s1` [Na-acetazolamide] the “lowering of intraocular pressure” value (intraocular pressure [4]) was “only a transient, non-statistically significant lowering of intraocular pressure”.

With `CCCCCCCCCCCCCCCC(=O)O` [Palmitic acid, palmitic acid] the “Palmitic acid in fraction” value ([5]; Lower fraction) was 23.4 μg/0.1 ml, the “Palmitic acid in fraction” value ([5]; Middle fraction) was 34.0 μg/0.1 ml and the “Palmitic acid in fraction” value ([5]; Upper fraction) was 41.0 μg/0.1 ml.

`CC(=O)Nc1nnc(S(N)(=O)=O)s1` [acetazolamide] showed a guest/host molar ratio ([6]; 45% HPBCD) of 0.31, a solubility ([6]; 45% hpbcd) of 20000 µg/mL and a solubility ([7]; hpbcd solution, HPBCD source A, Roquette (RE No. 446601), read-out: maximum solubility) of 1000 µg/mL (≈ 4.5 mM). The solubility ([7]; hpbcd solution, HPBCD source B, American Maize ("Encapsin"), read-out: maximum solubility) was 10000 µg/mL (≈ 45 mM), the solubility ([7]; hpbcd solution, HPBCD source C, Wacker Chemical (BetaW7, HP0.9), read-out: maximum solubility) was 18000 µg/mL (≈ 81 mM) and the solubility ([7]; water, read-out: maximum solubility in water) was 1000 µg/mL (≈ 4.5 mM). The guest/host molar ratio ([1]; 45% HPBCD, source B (A. Maize)) was 0.31, the solubility [1, 11] was > 5000 µg/mL and the solubility [1, 12] was 20000 µg/mL.

In the case of `CNCC(O)c1ccc(OC(=O)C(C)(C)C)c(OC(=O)C(C)(C)C)c1` (centres unmarked) [dipiviphrine], the “sensitivity developed by patients” value ([8]; human, in vivo) is listed as “frequently develop sensitivity”.

For `CC(=O)Nc1nnc(S(N)(=O)=O)s1` [disodium salts of acetazolamide], the “lowering of intraocular pressure” value [9] is listed as “can be used to lower the intraocular pressure of the normal rabbit eye”.

In the case of `CNC[C@H](O)c1ccc(O)c(O)c1` [epinephrine], the “sensitivity developed by patients” value ([8]; topical, used for a year or longer) is given as “frequently develop sensitivity”.

With `CC(=O)/N=c1/sc(S(N)(=O)=O)nn1C` [methazolamide] the “duration of effect relative to acetazolamide” value (intraocular pressure [10]) was “longer duration of effect than does acetazolamide” and the “potency relative to acetazolamide” value (intraocular pressure [10]) was “more potent”.
